This experiment concerns the target HERG potassium channel (human ether-a-go-go related gene) (Homo sapiens, UniProt Q12809). Put plainly: cell-based.

pIC50: −log10 of the molar value.

Sequence of HERG potassium channel (human ether-a-go-go related gene) (Q12809 whole entry): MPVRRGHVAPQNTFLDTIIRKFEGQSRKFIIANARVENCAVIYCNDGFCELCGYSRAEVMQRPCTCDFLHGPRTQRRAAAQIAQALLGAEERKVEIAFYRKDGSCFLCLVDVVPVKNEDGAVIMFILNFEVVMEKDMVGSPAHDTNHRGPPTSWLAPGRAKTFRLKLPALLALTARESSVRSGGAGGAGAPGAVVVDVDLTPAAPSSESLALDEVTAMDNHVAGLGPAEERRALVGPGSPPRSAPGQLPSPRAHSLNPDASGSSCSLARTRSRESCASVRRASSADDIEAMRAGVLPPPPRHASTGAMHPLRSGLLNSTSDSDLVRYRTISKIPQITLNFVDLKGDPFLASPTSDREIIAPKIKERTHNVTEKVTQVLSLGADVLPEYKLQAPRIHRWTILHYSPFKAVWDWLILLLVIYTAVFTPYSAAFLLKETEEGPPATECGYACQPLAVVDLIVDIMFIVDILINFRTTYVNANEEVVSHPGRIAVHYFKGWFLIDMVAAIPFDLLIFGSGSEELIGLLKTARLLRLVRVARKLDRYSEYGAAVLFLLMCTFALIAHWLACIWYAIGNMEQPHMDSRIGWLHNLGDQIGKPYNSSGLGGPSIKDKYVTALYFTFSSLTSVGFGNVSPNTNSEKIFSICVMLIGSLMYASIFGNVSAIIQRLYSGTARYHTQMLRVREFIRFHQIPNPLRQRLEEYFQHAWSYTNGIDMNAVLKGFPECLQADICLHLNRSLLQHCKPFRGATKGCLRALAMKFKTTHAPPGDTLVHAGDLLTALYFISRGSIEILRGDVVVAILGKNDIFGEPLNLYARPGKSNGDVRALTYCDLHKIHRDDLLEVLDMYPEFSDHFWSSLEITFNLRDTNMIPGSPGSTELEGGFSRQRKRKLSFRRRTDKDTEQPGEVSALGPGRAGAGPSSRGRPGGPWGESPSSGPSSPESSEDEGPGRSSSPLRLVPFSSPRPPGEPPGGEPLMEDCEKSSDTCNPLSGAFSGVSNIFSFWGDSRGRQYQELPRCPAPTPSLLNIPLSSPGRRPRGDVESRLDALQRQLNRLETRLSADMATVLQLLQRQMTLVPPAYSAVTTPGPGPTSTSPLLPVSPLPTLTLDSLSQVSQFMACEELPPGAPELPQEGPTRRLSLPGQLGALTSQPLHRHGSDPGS

In the case of `CCCCCCCCCCCC[N+](C)(C)CCOc1ccccc1` [DB, domiphen bromide], the pIC50 was 8.05.

As a reminder, the pIC50 is the IC50 on a negative log10 scale, so that one unit is a factor of ten. A higher pIC50 goes with a low IC50.
